Assay results reported in article PMC8464905, “Novel c-Jun N-Terminal Kinase (JNK) Inhibitors with an 11H-Indeno[1,2-b]quinoxalin-11-one Scaffold” (Molecules, 2021).
Like-named read-outs stand apart in the source and are kept apart here.

Key:
[1] = test system: IL-6; assay: LPS-induced IL-6 production in MonoMac-6 cells (ELISA); assay type: cell-based; details: Homo sapiens, MONO-MAC-6; 30 min pretreatment, 250 ng/mL LPS for 24 h; read-out: MonoMac-6 Cell IL-6 IC50
Procedure: (§1) All cells were cultured at 37 °C in a humidified atmosphere containing 5% CO2. THP1-Blue cells obtained from InvivoGen (San Diego, CA, USA) were cultured in RPMI 1640 medium (Mediatech Inc., Herndon, VA, USA) supplemented with 10% (v/v) fetal bovine serum (FBS), 100 μg/mL streptomycin, 100 U/mL penicillin, 100 μg/mL phleomycin (Zeocin), and 10 μg/mL blasticidin S. Human monocyte-macrophage MonoMac-6 cells (Deutsche Sammlung von Mikroorganismen und Zellkulturen GmbH, Braunschweig, Germany) were grown in RPMI 1640 medium supplemented with 10% (v/v) FBS, 10 μg/mL bovine insulin, 100 μg/mL streptomycin, and 100 U/mL penicillin.
A human IL-6 ELISA kit (BD Biosciences, San Jose, CA, USA) was measure IL-6 production. MonoMac-6 cells were plated in 96-well plates at a density of 2 × 10^5 cells/well in culture medium supplemented with 3% (v/v) endotoxin-free FBS. The cells were pretreated with test compound or DMSO for 30 min, followed by addition of 250 ng/mL LPS for 24 h. IC50 values for IL-6 production were calculated by plotting percentage inhibition against the logarithm of inhibitor concentration (at least five points).

[2] = test system: phospho-c-Jun (Ser63); assay: LPS-induced c-Jun (Ser63) phosphorylation in MonoMac-6 cells (Western blotting); assay type: cell-based, human; details: 30 min pretreatment, LPS 250 ng/mL 30 min
Procedure: MonoMac-6 monocytic cells were pretreated with different concentrations of the compounds under investigation for 30 min and treated with LPS (250 ng/mL) or vehicle for another 30 min. Cells were washed twice with Hanks’ balanced salt solution, and cell lysates were prepared using lysis buffer from the JNK kinase assay kit (Cell Signaling Technology, Danvers, MA). Cell lysates (from 5 × 10^6 cells) were separated on ExpressPlus 4–20% PAGE Gels (GenScript, Piscataway, NJ, USA) using TRIS-MOPS running buffer (GenScript) and transferred to nitrocellulose membranes. The blots were probed with antibodies against c-Jun, phospho-c-Jun (Ser63), and total c-Jun (Cell Signaling Technology, Danvers, MA, USA), followed by horseradish peroxidase-conjugated secondary antibody (Cell Signaling Technology). The blots were developed using SuperSignal West Femto chemiluminescent substrate (Thermo Fisher Scientific) and visualized with a FluorChem FC2 imaging system (Alpha Innotech Corporation, San Leandro, CA, USA). Quantitation of the chemiluminescent signal was performed using AlphaView software (ver. 3.0; Alpha Innotech).

[3] = CellTiter-Glo cytotoxicity in THP-1Blue cells; assay type: cell-based, human; details: human, THP-1Blue cells; 24-h incubation, up to 50 μM; read-out: THP-1Blue Cell Cytotoxicity IC50
Procedure: as §1
(§2) Cytotoxicity was analyzed with a CellTiter-Glo Luminescent Cell Viability Assay Kit from Promega (Madison, WI, USA), according to the manufacturer’s protocol. Cells were treated with compounds under investigation and incubated for 24 h. After treatment, the cells were equilibrated to room temperature for 30 min, substrate was added, and the samples were analyzed with a Fluoroscan Ascent FL (Thermo Fisher Scientific, Waltham, MA, USA). The IC50 values were calculated by plotting percentage inhibition against the logarithm of inhibitor concentration (at least five points).

[4] = CellTiter-Glo cytotoxicity in MonoMac-6 cells; assay type: cell-based, human; details: human, MonoMac-6 cells; 24-h incubation, up to 50 μM; read-out: MonoMac-6 Cell Cytotoxicity IC50
Procedure: as §1, §2

[5] = Water solubility; assay type: physicochemical
[6] = biological target: JNK1-3; assay: KINOMEscan binding, statements for all three JNK isoforms; details: summary of Table 3
Procedure: (§3) Selected compounds were submitted for dissociation constant (Kd) determination using KINOMEscan (Eurofins Pharma Discovery, San Diego, CA, USA), as described previously. […] Primary screening at fixed concentrations of compounds was performed in duplicate.

[7] = test system: NF-κB/AP-1; assay: LPS-induced NF-κB/AP-1 alkaline phosphatase reporter assay in THP1-Blue cells; assay type: cell-based; details: Homo sapiens; 30 min pretreatment, 250 ng/mL LPS for 24 h; read-out: THP-1Blue Cell NF-κB/AP-1 IC50
Procedure: as §1
Activation of AP-1/NF-κB was measured using an alkaline phosphatase reporter gene assay in THP1-Blue cells. Human monocytic THP-1 Blue cells are stably transfected with a secreted embryonic alkaline phosphatase gene that is under the control of a promoter inducible by NF-κB/AP-1. THP1-Blue cells (2 × 10^5 cells/well) were pretreated with test compound or DMSO for 30 min, followed by addition of 250 ng/mL lipopolysaccharide (LPS) for 24 h, and alkaline phosphatase activity was measured in cell supernatants using QUANTI-Blue mix (InvivoGen) as absorbance at 655 nm and compared with positive control samples (LPS). For selected compounds, the concentrations of inhibitor that caused 50% inhibition of the NF-κB reporter activity (IC50) were calculated.

[8] = biological target: T1, JNK1 (Homo sapiens, UniProt P45983); assay: KINOMEscan Kd determination, JNK1; details: duplicate, mean, N.B. = no binding at < 30 μM
T1 construct: purchased Eurofins Pharma Discovery (KINOMEscan)
Procedure: as §3

[9] = biological target: T2, JNK3 (Homo sapiens, UniProt P53779); assay: KINOMEscan Kd determination, JNK3; details: duplicate, mean, N.B. = no binding at < 30 μM
T2 construct: purchased Eurofins Pharma Discovery (KINOMEscan)
Procedure: as §3

[10] = biological target: T3, JNK2 (Homo sapiens, UniProt P45984); assay: KINOMEscan Kd determination, JNK2; details: duplicate, mean, N.B. = no binding at < 30 μM
T3 construct: purchased Eurofins Pharma Discovery (KINOMEscan)
Procedure: as §3

[11] = test system: IL-6; set-up: method as in PMID 22434859; details: LPS-induced; ref [35]; read-out: MonoMac-6 Cell IL-6 IC50; cited from earlier work
[12] = biological target: T2, JNK3; set-up: method as in PMID 27027242, PMID 11717429, PMID 16759099, PMID 21666839; details: Figure 1; ref [25],[32],[33],[34]; cited from earlier work
[13] = biological target: T1, JNK1; set-up: method as in PMID 27027242, PMID 11717429, PMID 16759099, PMID 21666839; details: Figure 1; ref [25],[32],[33],[34]; cited from earlier work
[14] = test system: JNK1-3; set-up: method as in PMID 27027242, PMID 11717429, PMID 16759099, PMID 21666839; details: Figure 1; ref [25],[32],[33],[34]; cited from earlier work

T2 sequence (P53779 whole entry): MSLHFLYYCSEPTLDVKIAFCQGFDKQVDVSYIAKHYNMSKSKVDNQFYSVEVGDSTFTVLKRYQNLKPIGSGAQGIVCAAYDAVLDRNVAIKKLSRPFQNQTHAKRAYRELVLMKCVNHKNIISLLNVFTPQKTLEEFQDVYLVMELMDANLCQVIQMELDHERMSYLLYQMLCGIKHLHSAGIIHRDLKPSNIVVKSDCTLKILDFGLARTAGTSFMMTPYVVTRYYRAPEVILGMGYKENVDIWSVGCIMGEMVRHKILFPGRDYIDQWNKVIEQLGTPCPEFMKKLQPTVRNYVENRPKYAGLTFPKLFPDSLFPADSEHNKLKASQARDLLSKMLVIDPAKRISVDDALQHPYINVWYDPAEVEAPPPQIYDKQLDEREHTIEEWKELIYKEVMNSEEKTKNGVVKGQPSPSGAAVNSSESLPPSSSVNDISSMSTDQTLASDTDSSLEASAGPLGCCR
T1 sequence (P45983 whole entry): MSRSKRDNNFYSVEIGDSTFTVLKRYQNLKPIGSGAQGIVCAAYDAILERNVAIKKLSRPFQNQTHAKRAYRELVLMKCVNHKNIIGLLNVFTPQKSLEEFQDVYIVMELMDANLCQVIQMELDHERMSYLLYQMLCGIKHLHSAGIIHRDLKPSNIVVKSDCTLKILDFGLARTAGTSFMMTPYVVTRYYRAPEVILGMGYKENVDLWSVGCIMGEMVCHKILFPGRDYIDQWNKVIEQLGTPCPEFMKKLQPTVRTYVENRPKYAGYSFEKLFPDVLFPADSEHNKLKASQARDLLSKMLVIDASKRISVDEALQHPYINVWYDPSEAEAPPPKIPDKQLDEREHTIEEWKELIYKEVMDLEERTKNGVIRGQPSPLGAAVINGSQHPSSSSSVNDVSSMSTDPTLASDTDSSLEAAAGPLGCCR
T3 sequence (P45984 whole entry): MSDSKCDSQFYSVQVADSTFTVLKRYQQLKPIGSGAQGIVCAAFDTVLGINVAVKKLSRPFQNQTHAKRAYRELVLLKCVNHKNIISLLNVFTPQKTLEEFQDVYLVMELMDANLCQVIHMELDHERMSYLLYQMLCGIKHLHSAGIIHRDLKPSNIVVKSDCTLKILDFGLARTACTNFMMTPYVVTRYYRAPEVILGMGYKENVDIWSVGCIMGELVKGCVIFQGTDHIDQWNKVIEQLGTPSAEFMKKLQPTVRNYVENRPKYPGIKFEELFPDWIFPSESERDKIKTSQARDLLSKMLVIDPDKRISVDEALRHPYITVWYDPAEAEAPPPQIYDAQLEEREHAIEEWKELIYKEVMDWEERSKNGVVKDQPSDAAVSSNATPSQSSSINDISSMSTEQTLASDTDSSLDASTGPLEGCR

**Q.** What does the source list for `ON=C1c2ccccc2-c2nc3c(CN4CCOCC4)cccc3nc21` [Compound 4m, 6-(Morpholinomethyl)-11H-indeno[1,2-b]quinoxalin-11-one Oxime]?
**A.** IC50 [1]: 800 ± 100 nM; Effect on LPS-induced c-Jun (Ser63) phosphorylation [2]: inhibited c-Jun phosphorylation; IC50 at 24 h [3]: > 50000 nM; IC50 at 24 h [4]: > 50000 nM; melting point: 210 to 211 °C; Water solubility [5]: high water solubility; Binding affinity (Kd) for all three JNK isoforms, in words [6]: relatively high binding affinity; IC50 [7]: 100 ± 50 nM; Kd [8]: 1100 ± 100 nM; Kd [9]: 910 ± 300 nM; Kd [10]: 880 ± 100 nM

**Q.** For `ON=C1c2ccccc2-c2nc3ccccc3nc21` [IQ-1, 11H-indeno[1,2-b]quinoxalin-11-one oxime], which IC50 [11] is on record?
**A.** 3400 ± 800 nM

**Q.** For `Cc1ccc(-c2ncn(-c3ccc(Nc4nccc(-c5cccc(N6CCOCC6)c5)n4)cc3)n2)cn1` [SR-3306], which IC50 [12] is on record?
**A.** 67 nM

**Q.** What about the IC50 [13] of the same compound?
**A.** 159 nM

**Q.** For SP600125, which IC50 [14] is on record?
**A.** 40 to 90 nM
